The record followed here is patent US10350308B2, “Molecular probes for imaging myelin” (priority 2010, dated 2019).

“Also recorded” adds a separate entry of the source.

A short description of series [1]: Fluorescent excitation and emission spectra. The following applies: 100 nM in DMSO. Format: physicochemical. The protocol:
The fluorescent excitation and emission spectrum is recorded using Varian fluorescent spectroscopy at the concentration of […] in DMSO.
The excitation and emission spectra of CNP were recorded using Cary Eclipse Fluorescence Spectrophotometers (Varian, Inc.; Palo Alto, Calif.) at 25° C. in DMSO, at a concentration of 100 nM. The excitation and emission slits were 5 nm, the scan rate was 600 nm/min, and the data interval was 1 nm.

In series [2] the test system is myelin. The series is described as follows: In vivo NIRF imaging in shiverer mouse model. Further details: species or system shiverer mice and wild-type mice. The following applies: for fluorescent intensities in the brain, shiverer versus wild-type mice / time of peak fluorescent signal in shiverer mice / average radiance in wild-type mice relative to shiverer mice: 0.1 mg/kg i.v.; for time of peak fluorescent signal in shiverer mice: brain; for average radiance in wild-type mice relative to shiverer mice: at 30 minutes, after deducting vehicle signals.
Experimental: We then evaluated the pharmacokinetic profiles of CNIR in 3-month old female shiverer mice (n=3) and age-matched wild-type mice (n=2). The in vivo NIR imaging was conducted using the same dosage as in the hypermyelinated mouse model. The fluorescent signals were recorded at 2, 4, 6, 8, 10, 15, 20, 25, 30, 40, 50, 60, 70, 80, 90, 100, 110 and 120 min after i.v. injection of CNIR and the vehicle (0.05% DMSO/PBS (V/V)).

In another series the test system is myelin sheaths. Nature of the series: In vitro fluorescent tissue staining of mouse brain sections. The following applies: compared with MBP antibody. The class given is binding.
For series [3], the system named is myelin. The series is described as follows: In vivo NIRF imaging in hypermyelinated mouse model. Further details: species or system Plp-Akt-DD mice and wild-type mice. The following applies: 0.1 mg/kg i.v. As for the experimental part:
The in vivo Near-infrared fluorescence imaging was carried out using Xenogen IVIS Imaging System 200, (Caliper Life Science, Inc., Hopkinton, Mass.). To avoid the influence of the autofluorescence and light scattering due to the fur, all the mice were shaved before experiment. After the i.v. injection of CNIR 0.1 mg/kg, the mouse was anesthetized utilizing isoflurane gas, the mouse was positioned on the center of the stage (working temperature 20-40° C.). The Near-infrared images were acquired by Back-thinned, back-illuminated grade 1 CCD, which is thermoelectrically cooled to −90° C. ensuring low dark current and low noise. The fluorescent filter set for excitation was 705-780 nm, for emission was 810-885 nm. The experiments were controlled with Living Image 3.1 (Caliper Life Science. Inc., Hopkinton, Mass.). Lens: f/2. Field of view: 6.5 cm×6.5 cm. Imaging Pixels: 2048×2048. Exposure time: 0.5 s for all the images. The near-infrared images were evaluated by Living Image 3.1 (Caliper Life Science. Inc., Hopkinton, Mass.). All the images used photon as the unit for the quantification, and the images were shown as overlaid photograph with fluorescence. Statistical analysis was performed using two-tailed t-test with GraphPad Prism 5, (GraphPad Software, Inc., La Jolla, Calif.). CNIR (0.1 mg/kg) and vehicle (0.05% DMSO/PBS (V/V)) was first administered to the hypermyelinated mouse model through intravenous injected in the tail vein. The fluorescence signals were recorded at 2, 4, 6, 8, 10, 15, 20, 25, 30, 40, 50, 60, 70, 80, 90, 100, 110 and 120 min post injection. To exclude the influence of autofluorescence from the mouse tissues and impact from the solution, the vehicle (0.05% DMSO/PBS (V/V)) also injected and fluorescence was recorded at 2, 4, 6, 8, 10, 15, 20, 25, 30, 40, 50, 60, 70, 80, 90, 100, 110 and 120 min to compare with the CNIR solution (images not shown). […]

Series [4] can be described thus: Brain permeability by co-registration of fluorescent and X-ray images. The class given is in vivo. The following applies: 0.1 mg/kg i.v., 20 minutes post injection, wild-type mice. As for the experimental part: The fur of the mouse was shaved to avoid the problem of autofluorescence. 20 minutes after the i.v. injection of CNIR 0.1 mg/kg, the mouse was anesthetized utilizing isoflurane gas. The mouse was positioned on the center of the platen and imaged via fluorescence (ex 760 em 790) and X-ray. Vertical Resolution: 885 ppi, horizontal Resolution: 885 ppi. To determine the brain permeability of CNIR, we administered CNIR to wild-type mice through intravenous injection in tail vein. At 20 minutes post injection of CNIR (0.1 mg/kg), both X-ray and fluorescent images of the mouse brain were acquired using KODAK In-Vivo Multispectral System FX (FIG. 3). Co-registration of high quality X-ray image and fluorescent image confirmed that the strong fluorescence was indeed emitted from inside the brain.

In a further series the test system is MBP. The series is described as follows: CNP staining followed by MBP antibody staining in the same brain tissue sections. The class given is binding, mouse. The following applies: cerebellum, frontal cortex, caudate putamen; CNP 1 mM. As for the experimental part: After incubation with 3% normal goat serum in 1×PBS for 60 min, the fresh frozen sections were immunostained overnight at 4° C. with purified SMI99 mouse monoclonal anti-MBP (Covance, Inc. Princeton, N.J.) 1:500 dilution in 3% normal goat serum in 1×PBS, followed by one hour incubation at room temperature with Fluorescein (FITC) AffiniPure Goat Anti-Mouse IgG (H=L) (Jackson ImmunoResearch Laboratories, Inc. West Grove, Pa.) 1:500 dilution, then rinsed in 1×PBS (2×5′). The stained sections were covered with fluorescence mounting medium (Vectashield, Vector laboratories). Images of the stained mouse brain sections were acquired on a Leica DM5000 inverted microscope (L5 filter, BP 527/30).
Fresh frozen sections with 20 μm thickness were incubated in 0.1% Triton-100 in 1×PBS for 10 min, which was followed by incubation in a solution of CNP (1 mM) in 1% DMSO/1×PBS for 30 min at room temperature. The fresh frozen sections were then washed three times for 5 min each with 1×PBS before cover-slipping with fluorescence mounting medium (Vectashield, Vector laboratories). Images of the stained mouse brain sections were acquired on a Leica DMI5000 inverted microscope (Y5 filter, BP 700/75).
To determine the exact binding sites of CNP, we compared both CNP and MBP staining conducted in the same brain tissue sections. […]

The test system of series [5] is LPC induced demyelination lesion. Nature of the series: CNP staining of rat brain sections after imaging in the focal demyelination model. Format: binding. The following applies: LPC-rats versus saline-rats, compared with Black-Gold II. As for the experimental part:
Focal demyelination of adult rat brain. Sprague Dawley female rats (Harlan Laboratory, Indianapolis, Ind.), 12 weeks of age, were used for this study. Animal surgery and care was performed in accordance with the Institutional Animal Care and Use Committee of Case Western Reserve University Animals were anesthetized using a mixture of ketamine hydrochloride (64.2 mg/kg), xylazine hydrochloride (12.9 mg/kg), and acepromazine (12.9 mg/kg) and positioned in a stereotaxic frame (Stoelting). […]
Fresh frozen section: Mice or rats were deeply anesthetized with isoflurane and perfused via the ascending aorta with PBS followed by 4% paraformaldehyde in PBS. […] Tissue from the midline of the brain containing the whole corpus callosum was selected for staining Stained sections were covered with fluorescence mounting medium (Vectashield; Vector Laboratories, Burlingame, Calif.) and stored at 4° C. for future analysis.
Fresh frozen sections with 20 μm thickness were incubated in 0.1% Triton-100 in 1×PBS for 10 min, which was followed by incubation in a solution of CNP (1 mM) in 1% DMSO/1×PBS for 30 min at room temperature. The fresh frozen sections were then washed three times for 5 min each with 1×PBS before cover-slipping with fluorescence mounting medium (Vectashield, Vector laboratories). […]

Series [6] concerns myelin. Nature of the series: In vivo microPET-MR imaging in focal demyelination rat model. As for the experimental part:
Focal demyelination of adult rat brain. Sprague Dawley female rats (Harlan Laboratory, Indianapolis, Ind.), 12 weeks of age, were used for this study. Animal surgery and care was performed in accordance with the Institutional Animal Care and Use Committee of Case Western Reserve University Animals were anesthetized using a mixture of ketamine hydrochloride (64.2 mg/kg), xylazine hydrochloride (12.9 mg/kg), and acepromazine (12.9 mg/kg) and positioned in a stereotaxic frame (Stoelting). A small incision was made in the scalp, and the corpus callosum was targeted using the following stereotaxic coordinates, relative to bregma: anterior-posterior, 0.0 mm; medial-lateral, 2.0; and dorsal-ventral, 3.4. A small hole was drilled in the skull, and a 26 S gauge needle attached to a 10 μl Hamilton Syringe was lowered into the corpus callosum according to the dorsal-ventral coordinate. A microinjector pump (Stoelting) controlled the infusion of 6 μl of lysolethicin (lysophosphatidyl chorine) or saline at a rate of 0.25 μl/min, after which the needle was left in place for 2 min to prevent liquid reflux out of the brain parenchyma. The incision was then closed using 5-0 Ethicon sutures, and the animals were allowed to recover on a heating pad. The imaging of demyelination of the rats and vehicles were performed 5 d after surgery. The rats were kept alive.
Animals were placed in a Concord R4 microPET scanner (Knoxyille, Tenn.) under anesthesia. After a 10 min transmission scan with a Co-57 source, 7.4 MBq of [11C]DAS were administered to each animal through a tail vein injection, which was immediately followed by dynamic acquisition for up to 90 min. A 2-D filtered back projection (FBP) algorithm was used for image reconstruction with a 256×256 pixel resolution per transverse slice. A total of 63 transverse slices were reconstructed with the field of view covering the head of the animals. Decay correction, attenuation correction and scatter correction were all performed during the image histogram and reconstruction processes.
All MR imaging experiments were performed on a Bruker Biospec 7.0T/30 cm MRI and Spectroscopy scanner (Bruker Biospin, Billerica, Mass.). The animal's head was positioned in a 72-mm volume ID cylindrical transceiver coil. […]
Coregistration of MRI and PET images, PET and CT images were conducted by using the MATLAB-based program COMKAT (Compartmental Model Kinetic Analysis Tool). […] After creating uniform images from the PET and MRI images, VOI (Volume of interest) and ROI (Region of interest) were defined and used to measure the radioactivity concentration in the corpus callosums of both hypomyelinated and wild type mice. […]
The radioactivity was decay-corrected and normalized by the body weight of the mice and the amount of [^11C] […]

The mark [7] stands for this setting: corpus callosum, 0-60 min microPET.

With `CCN1\C(=C/C=C/C=C/C=C/c2sc3ccccc3[n+]2CC)Sc2ccccc21.[I-]` [CNIR, 3,3′Diethylthiatricarbocyanine iodide], in series [1], the maximal emission wavelength stood at 797 nm and the maximal excitation wavelength is reported as 782 nm. Also, in the series on myelin [2], the “fluorescent intensities in the brain, shiverer versus wild-type mice” value is “significant different”; the “time of peak fluorescent signal in shiverer mice” value is 2 min; the “average radiance in wild-type mice relative to shiverer mice” value was “eightfold greater”. In addition, the “labeling of myelin sheaths in wild-type mouse brain sections” value with myelin sheaths (1 μM, free floating sections) was “selectively labeled intact myelin sheaths”. For the same molecule, the “fluorescent radiance / average fluorescent intensity in Plp-Akt-DD mice compared with wild-type mice” value in the series on myelin [3] (2-120 min post injection) is listed as “much stronger; also recorded: higher”. Also, in the series with myelin [3] (brain fluorescence), the “clearance in wild-type control mice” value is on record as “fast clearance”. For the same molecule, the “clearance in hypermyelinated (Plp-Akt-DD) mice” value in the series on myelin [3] (brain fluorescence, compared to WT) is listed as “relatively slower clearance”. Moreover, in series [4], the brain permeability entry is reported as “can readily penetrate the intact blood-brain barrier”.
As to `COc1cccc(CN2\C(=C/C=C/C=C/C=C/c3sc4ccccc4[n+]3Cc3cccc(OC)c3)Sc3ccccc32)c1.[Br-]` [CNP], in the series with MBP, the “antibody staining of MBP after CNP staining of the same section” value is listed as “significantly blocked”. For the same molecule, in the series with myelin [2], the “fluorescent intensities in the brain, shiverer versus wild-type mice” value was “significantly different”; the “time of peak fluorescent signal in shiverer mice” value is given as 5 min; the “average radiance in wild-type mice relative to shiverer mice” value was “four fold greater”. The brain entry entry with myelin [2] (summary statement at the head of Example 1) was “readily enters the brain”. In the series on myelin sheaths (100 μM, fresh frozen sections), the “labeling of myelin sheaths in wild-type mouse brain sections” value is given as “bind specifically to myelin sheaths”. Further, in the series on myelin sheaths (1 mM, fresh frozen sections), the “labeling of myelin sheaths in wild-type and shiverer mouse brain sections” value is recorded as “selectively labeled intact myelin sheaths”. Also, the “detection of demyelination lesion in brain sections” value in series [5] is “can detect the LPC induced demyelination lesion”.
For the molecule `COc1cccc(C[n+]2c(/C=C/C=C/C=C/C=C3/Sc4ccccc4N3Cc3cccc(O[11CH3])c3)sc3ccccc32)c1` [[^11C] CNP], in the series on myelin [6] (corpus callosum ROI, 60 min microPET scan), the “uptake in control rat brain compared with demyelinated rat brain” value was “significantly higher”. Also, in the series on myelin [6] (setting [7]), the “average SUV in demyelinated region, lower than control myelinated region” value stood at 40% and the “average SUV in demyelinated region, lower than remyelinated region” value came to 20%. Also, the localization in brain result in the series on myelin [6] (white matter versus gray matter) is reported as “preferentially localizes in the myelin-rich white matter”.
